Experimental data taken from patent US7524930B2, “Tumor antigen” (Green Peptide Co., Ltd, priority 2003, dated 2009).
Peptide text beside a SMILES is read from it.

Experiments:
[1] = tested on: peripheral blood mononuclear cells derived from a cancer patient; assay type: cell-based, human
Protocol: Moreover, CTL-activating ability of these 19 peptides was directly examined in a ^51Cr-releasing test using toxicity to the target cells as an indicator. Specifically, the above-described PBMC, in which CTL was induced, was further recultured to proliferate in the presence of autologous APC, IL-2, and a corresponding peptide. At about day 21 to 28 after the start of reculturing, PBMC was collected and cytotoxicity thereof was tested again by measuring IFN-γ and by a 6-h ^51Cr-releasing test. PBMC of the cancer patient, which was stimulated by these peptides, lysed the HLA-A2^+ tumor cells. However, the autologous EBV-B cells and the T cells stimulated by PHA, both of which were derived from normal cells and were expressing HLA-A2, and the HLA-A2^− tumor cell RERF-LC-MS, were not lysed.

[2] = tested on: Panc-1 cells and YPK-3 cells; assay: 51Cr-releasing test of CTLs induced by KM-PA-2 peptides (Example 8); assay type: cell-based, human; conditions: result in words; for Lysis of HLA-A2- tumor cell and normal cells by peptide-induced CTLs: PaCa-2, EBV-B cell line OKAB2, PHA-stimulated T cells; for Lysis of HLA-A2+ tumor cells by peptide-induced CTLs: Panc-1 cells and YPK-3 cells
Text: The ability of the synthesized peptide to induce CTL from the peripheral blood mononuclear cells of the colon cancer patient, from whom OK-CTLp was obtained, was examined in the same way as that in Example 6. As a result, as shown in FIGS. 20A-20B, PBMC that was stimulated in vitro using any one of peptides P33 to P41 (SEQ ID NO:33 to SEQ ID NO:41) derived from KM-PA-2 and peptides P42 to P44 (SEQ ID NO:42 to SEQ ID NO:44) derived from KM-PA-4, produced IFN-γ through recognition of the T2 cells (left-hand figure of FIGS. 20A-20B,) which were pulsed with the peptide corresponding to that used for stimulation of the PBMC, and the Panc-1 cell (right-hand of FIGS. 20A-20B,) which is the HLA-A2^+ tumor cell. However, the PBMC reacted […] to the HLA-A2^− tumor cell. […] In addition, cytotoxicity of these CTLs induced by the peptides was directly confirmed by the ^51Cr-releasing test in the same way as that in Example 6. FIGS. 21A-21C show a representative example of the result. As shown in FIGS. 21A-21C, CTLs induced from PBMC of the cancer patient by P35, P39, or P40 lysed Panc-1 cells and YPK-3 cells, both of which are HLA-A2^+ tumor cells. However, the HLA-A2^− tumor cell PaCa-2, the EBV-B cell line OKAB2, and the T cells stimulated by PHA, was not lysed.

OK-CTLp = assay: IFN-γ production by OK-CTLp against COS-7 cells cotransfected with cDNA clone and HLA-A0207 cDNA (ELISA); assay type: cell-based, human; conditions: result in words
Protocol: 200 ng of the above-described plasmid DNA pool or clones of Panc-1 cell cDNA library was mixed with 200 ng of the cDNA of HLA-A0207 in 100 μl of Opti-MEM (Invitrogen Corp.) for 30 min. 50 μl of this mixture was added to COS-7 cells (5×10^3) and incubated for 6 h in a 96-well U-bottom type microculture plate (Nunc Corp.) for co-tranduction. Then, RPMI-1640 culture medium containing 10% FCS was added to and culturing was carried out for 2 days, followed by the addition of OK-CTLp (5×10^4) to each well. After a further 18 h incubation, 100 μl of the supernatant was collected and IFN-γ production was measured thereon by ELISA. […]
From the genes encoding the tumor antigens (Biochim. Biophys. Res. Commun., 281:936-944, 2001), which were detected by the SEREX (Serological Analysis of Recombinant cDNA Expression Libraries) method (Proc. Natl Acad. Sci. USA, 92:11910-[…], 1995) and already reported, two tumor antigen genes, KM-PA-2 and KM-PA-4; which can activate HLA-A2-restricted CTL, were found by using the same method as that of Example 2. […] However, among 1500 or more kinds of tumor antigens detected by this method, those identified as tumor antigens capable of inducing both cell-mediated immunity and humoral immunity are only MAGE-1, tyrosinase, and NY-ESO-1. […]

OK-CTLp or OK-CTL clone = assay: Recognition of peptide-pulsed T2 cells by OK-CTLp or OK-CTL clone (IFN-γ ELISA); assay type: cell-based, human
[3] = tested on: Panc-1 pancreatic adenocarcinoma cell (HLA-A2); assay: 6-h 51Cr-releasing test of peptide-stimulated PBMC against Panc-1 (Example 6); assay type: cell-based, human
Protocol: Meanwhile, the above-described cells cultured for 10 days after stimulation by the peptide were further cultured for 10 days. The cytotoxicity of the obtained cells against the Panc-1 pancreatic adenocarcinoma cell (HLA-A2) was measured by the standard 6-h ^51Cr-releasing test in an E/T ratio of 10:1. The results obtained are presented as % specific lysis (table 7). Together with this step, cytotoxicity against SSTW-9 tumor cell as the HLA-A2^− tumor cell was measured to use as a background that was subtracted from the above-described result.

[4] = tested on: human peripheral blood mononuclear cells (PBMC); assay: CTL induction by peptide from PBMC of HLA-A2-positive cancer patients and healthy individuals, IFN-γ against peptide-pulsed T2 cells (Example 6); assay type: cell-based; conditions: for INF-γ production: peptide-pulsed T2 cells
Protocol: For six peptides (P21, P22, P24, P26, P30, and P32) with a purity of 95% or higher among peptides from P20 to P32 derived from gene 7 and CPSF among the tumor antigen peptide obtained in Example 4, the activity to induce CTL in vitro from human peripheral blood mononuclear cells (PBMC) was examined using IFN-γ production as an indicator. PBMC used was prepared from each peripheral blood of sixteen HLA-A2-positive cancer patients (4 patients with pancreatic cancer, seven patients with stomach cancer, and 5 patients with colon cancer) and six healthy individuals. Specifically, 1×10^5 PBMC was added to each well of 96-well U-bottom type microculture plate (Nunc Corp.) and incubated together with 10 μM of each of the above-described peptides in 200 μl culture medium. The culture medium consisted of 45% RPMI-1640, 45% AIM-V (Invitrogen Corp.,) 10% fetal calf serum (FCS), 100U/ml of human interleukin-2, and […] MEM nonessential amino acid solution (Invitrogen Corp.). At day 4 and day 7 after the start of culturing, half of the culture medium was removed and replaced with the above-described composition containing each corresponding peptide. At day 10 after the start of culturing, the cells were collected and washed, followed by reacting with T2 cells, which were pulsed with each corresponding peptide, to measure the amount of IFN-γ produced.

`CC[C@H](C)[C@H](N)C(=O)N[C@H](C(=O)N[C@@H](Cc1ccc(O)cc1)C(=O)N[C@@H](CC(=O)O)C(=O)N[C@@H](CCCNC(=N)N)C(=O)N[C@@H](CCCCN)C(=O)N[C@@H](Cc1ccccc1)C(=O)N[C@@H](CC(C)C)C(=O)N[C@@H](CCSC)C(=O)O)[C@@H](C)CC` [Peptide P15] (H-IIYDRKFLM-OH) was tested, and the “Cytotoxicity of peptide-stimulated PBMC to the autologous EBV-B cells” value (shortened to “Cytotoxicity … to the autologous EBV-B cells”) [1] was “showed cytotoxicity”.
`CC(C)C[C@H](NC(=O)CN)C(=O)N[C@@H](CC(C)C)C(=O)N[C@@H](Cc1ccccc1)C(=O)N[C@@H](CC(C)C)C(=O)N[C@@H](Cc1c[nH]cn1)C(=O)N[C@H](C(=O)N[C@@H](CCCNC(=N)N)C(=O)N[C@H](C(=O)O)[C@@H](C)O)[C@@H](C)O` [Peptide P17] (H-GLLFLHTRT-OH) was tested, and the “Cytotoxicity … to the autologous EBV-B cells” value [1] was “showed cytotoxicity”.
With “LLQNPLLVPV (Designed peptide having an ability to activate HLA-A2 restricted Cytotoxic T lymphocytes) [Peptide P40, KM-PA-2 586-595]” the “Lysis of HLA-A2- tumor cell and normal cells by peptide-induced CTLs” value [2] was “not lysed” and the “Lysis of HLA-A2+ tumor cells by peptide-induced CTLs” value (from here on “Lysis of HLA-A2+ tumor cells”) [2] was “lysed”.
With `CC(C)C[C@H](NC(=O)[C@H](CCC(N)=O)NC(=O)[C@@H](N)CCC(N)=O)C(=O)N[C@@H](CS)C(=O)N[C@H](C(=O)N[C@@H](Cc1ccc(O)cc1)C(=O)N[C@@H](Cc1c[nH]c2ccccc12)C(=O)N[C@H](C(=O)N[C@H](C(=O)O)C(C)C)[C@@H](C)O)C(C)C` [Peptide P19] (H-QQLCVYWTV-OH) the “Cytotoxicity … to the autologous EBV-B cells” value [1] was “showed high cytotoxicity”.
“KM-PA-4: tumor antigen gene from CFPAC-1 (SEREX), 1841 bp, identical to coactosin-like protein (CLP)” was tested, and the “Recognition by OK-CTLp of COS-7 cells cotransfected with the cDNA and HLA-A0207 (IFN-γ production)” value (OK-CTLp) was “induced IFN-γ production from OK-CTLp”.
In the case of “DLLQNPLLV (Designed peptide having an ability to activate HLA-A2 restricted Cytotoxic T lymphocytes) [Peptide P39, KM-PA-2 585-593]”, the “Lysis of HLA-A2- tumor cell and normal cells by peptide-induced CTLs” value [2] is reported as “not lysed” and the “Lysis of HLA-A2+ tumor cells” value [2] is reported as “lysed”.
In the case of “KM-PA-2: tumor antigen gene from CFPAC-1 (SEREX), 2060 bp [AB060694], homologous to KIAA0124 / Bop1”, the “Recognition by OK-CTLp of COS-7 cells cotransfected with the cDNA and HLA-A0207 (IFN-γ production)” value (OK-CTLp) is reported as “induced IFN-γ production from OK-CTLp”.
For “DMWTVIAPV (Designed peptide having an ability to activate HLA-A2 restricted Cytotoxic T lymphocytes) [Peptide P22, CPSF 534-542]”, the IFN-γ production (OK-CTLp or OK-CTL clone; concentration of peptide 0.1 μM) was 254 pg/mL, the IFN-γ production (OK-CTLp or OK-CTL clone; concentration of peptide 1 μM) was 1027 pg/mL and the IFN-γ production (OK-CTLp or OK-CTL clone; concentration of peptide 10 μM) was 431 pg/mL. For the same compound, the IFN-γ production (OK-CTLp or OK-CTL clone; concentration of peptide 50 μM) was 407 pg/mL, the “% specific lysis” value ([3]; PBMC of colon cancer patient 12, Panc-1, E/T 10:1) was 28% and the “% specific lysis” value ([3]; PBMC of colon cancer patient 14, Panc-1, E/T 10:1) was 19%. For the same compound, the “% specific lysis” value ([3]; PBMC of pancreatic cancer patient 2, Panc-1, E/T 10:1, SSTW-9 background subtracted) was 37%, the INF-γ production ([4]; PBMC of colon cancer patient 12) was 92 pg/mL and the INF-γ production ([4]; PBMC of colon cancer patient 13) was 179 pg/mL. For the same compound, the INF-γ production ([4]; PBMC of colon cancer patient 14) was 80 pg/mL, the INF-γ production ([4]; PBMC of colon cancer patient 15) was 5 pg/mL and the INF-γ production ([4]; PBMC of colon cancer patient 16) was 0 pg/mL. It also gave an INF-γ production ([4]; PBMC of healthy individual HD1) of 0 pg/mL, an INF-γ production ([4]; PBMC of healthy individual HD2) of 0 pg/mL and an INF-γ production ([4]; PBMC of healthy individual HD3) of 0 pg/mL. The INF-γ production ([4]; PBMC of healthy individual HD4) was 0 pg/mL, the INF-γ production ([4]; PBMC of healthy individual HD5) was 0 pg/mL and the INF-γ production ([4]; PBMC of healthy individual HD6) was 14 pg/mL. The INF-γ production ([4]; PBMC of pancreatic cancer patient 1) was 0 pg/mL, the INF-γ production ([4]; PBMC of pancreatic cancer patient 2) was 38 pg/mL and the INF-γ production ([4]; PBMC of pancreatic cancer patient 3) was 0 pg/mL. For the same compound, the INF-γ production ([4]; PBMC of pancreatic cancer patient 4) was 8 pg/mL, the INF-γ production ([4]; PBMC of stomach cancer patient 5) was 0 pg/mL and the INF-γ production ([4]; PBMC of stomach cancer patient 6) was 0 pg/mL. The INF-γ production ([4]; PBMC of stomach cancer patient 7) was 0 pg/mL, the INF-γ production ([4]; PBMC of stomach cancer patient 8) was 0 pg/mL and the INF-γ production ([4]; PBMC of stomach cancer patient 9) was 0 pg/mL. For the same compound, the INF-γ production ([4]; PBMC of stomach cancer patient 10) was 0 pg/mL, the INF-γ production ([4]; PBMC of stomach cancer patient 11) was 0 pg/mL and the “Healthy individuals in whom CTL were induced from PBMC” value ([4]; six healthy individuals) was 33%. For the same compound, the “Patients in whom peptide-specific HLA-A2-restricted CTL were induced from PBMC” value ([4]; sixteen HLA-A2-positive cancer patients) was 38%.
For `CC[C@H](C)[C@H](NC(=O)[C@@H](NC(=O)[C@@H](N)CCCNC(=N)N)[C@@H](C)CC)C(=O)N[C@@H](Cc1ccc(O)cc1)C(=O)N[C@@H](CC(=O)O)C(=O)N[C@@H](CCCNC(=N)N)C(=O)N[C@@H](CCCCN)C(=O)N[C@@H](Cc1ccccc1)C(=O)N[C@@H](CC(C)C)C(=O)O` [Peptide P14] (H-RIIYDRKFL-OH), the “Cytotoxicity … to the autologous EBV-B cells” value [1] was “showed cytotoxicity”.
With “WAQEDPNAV (Designed peptide having an ability to activate HLA-A2 restricted Cytotoxic T lymphocytes) [Peptide P35, KM-PA-2 172-180]” the “Lysis of HLA-A2- tumor cell and normal cells by peptide-induced CTLs” value [2] was “not lysed” and the “Lysis of HLA-A2+ tumor cells” value [2] was “lysed”.
